Test results taken from the supplement of paper PMC10307832.

Columns and labels:
Assay in all cases: relative viability (nuclei count vs DMSO), 5 days (fraction); higher = more cells survive
[1] = compound: O=C(O)C(Cc1ccccc1[N+](=O)[O-])=NNc1nc(-c2ccc(Cl)c(Cl)c2)cs1 (mixture of isomers) [4EGI-1] + CC(C)C[C@H](NC(=O)[C@H](Cc1ccccc1)NC(=O)c1cnccn1)B(O)O [Bortezomib] (partner 0.002 µM)
Summary of the method: (§1)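 Relative viability is defined as nuclei in treated wells over nuclei in vehicle wells. Duplicate plates were run and medians reported. Lung cancer cell lines in 1536-well plates were dosed by pin tool one day after seeding, with one drug or with a fixed anchor-drug dose plus five library-drug doses (not always all listed) in √10 steps, and nuclei were counted after 5 days.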

[2] = compound: O=C(O)C(Cc1ccccc1[N+](=O)[O-])=NNc1nc(-c2ccc(Cl)c(Cl)c2)cs1 (mixture of isomers) [4EGI-1] + NC(=O)Nc1cc(-c2cccc(F)c2)sc1C(=O)N[C@H]1CCCNC1 [AZD7762] (partner 0.2 µM)
Summary of the method: as §1

[3] = compound: CN1CCN(CC1)C2=CC(=C(C=C2)NC3=NC=C4C(=N3)N(C5=CC=CC=C5C(=O)N4C)C)OC [XMD8-85] + CC(C)C[C@H](NC(=O)[C@H](Cc1ccccc1)NC(=O)c1cnccn1)B(O)O [Bortezomib] (partner 0.002 µM)
Summary of the method: as §1

[4] = compound: CN1CCN(CC1)C2=CC(=C(C=C2)NC3=NC=C4C(=N3)N(C5=CC=CC=C5C(=O)N4C)C)OC [XMD8-85] + C[C@@H](Oc1cc(-c2cnn(C3CCNCC3)c2)cnc1N)c1c(Cl)ccc(F)c1Cl [Crizotinib] (partner 1 µM)
Summary of the method: as §1

Cell Line | relative viability ([1]; first compound 0.5 µM) | relative viability ([1]; first compound 1.581 µM) | relative viability ([1]; first compound 5 µM) | relative viability ([1]; first compound 15.81 µM) | relative viability ([1]; first compound 50 µM) | relative viability ([2]; first compound 0.5 µM) | relative viability ([2]; first compound 1.581 µM) | relative viability ([2]; first compound 5 µM) | relative viability ([2]; first compound 15.81 µM) | relative viability ([2]; first compound 50 µM) | relative viability ([3]; first compound 0.08 µM) | relative viability ([3]; first compound 0.253 µM) | relative viability ([3]; first compound 0.8 µM) | relative viability ([3]; first compound 2.53 µM) | relative viability ([3]; first compound 8 µM) | relative viability ([4]; first compound 0.08 µM) | relative viability ([4]; first compound 0.253 µM) | relative viability ([4]; first compound 0.8 µM) | relative viability ([4]; first compound 2.53 µM) | relative viability ([4]; first compound 8 µM)
NCI-H1437 | 0.604 | 0.632 | 0.442 | 0.187 | 0.119 | 1.09 | 1.01 | 1.09 | 0.525 | 0.315 | 0.497 | 0.443 | 0.438 | 0.541 | 0.378 | 0.76 | 0.923 | 1.14 | 0.856 | 0.491
H3255 | 0.843 | 0.663 | 0.796 | 0.576 | 0.48 | 1.02 | 0.793 | 0.981 | 0.554 | 0.53 | 0.856 | 0.787 | – | 0.741 | 0.29 | 0.808 | 0.853 | 0.822 | 0.902 | 0.52
NCI-H322M | 1.18 | 1.21 | 1.18 | 0.991 | 1.09 | 0.604 | – | 0.563 | 0.417 | 0.36 | 1.36 | 1.22 | 1.3 | 1.46 | 1.04 | 0.872 | 1.03 | 0.929 | 0.996 | 0.55
NCI-H1703 | 0.403 | 0.363 | 0.446 | 0.365 | 0.201 | 0.121 | 0.131 | 0.147 | 0.12 | 0.119 | 0.28 | 0.267 | 0.306 | 0.345 | 0.196 | – | 0.586 | 0.649 | 0.47 | 0.315
NCI-H1915 | 1 | 0.693 | 1.09 | 1.01 | 0.687 | 0.775 | 0.546 | 0.69 | 0.726 | 0.301 | 0.67 | 0.923 | 0.942 | 0.986 | 0.945 | 1.06 | 0.909 | 0.943 | 0.998 | 0.882
RERF-LC-KJ | 1.09 | – | 1.07 | 0.847 | 0.931 | 0.984 | 0.605 | 1.11 | 0.669 | 0.604 | 0.937 | 1.07 | 1.06 | 1.2 | 0.742 | 0.881 | 0.751 | 0.807 | 0.817 | 0.658
201T | 1.15 | 1.05 | 1.08 | 1.09 | 1.03 | 0.797 | 0.514 | 0.736 | 0.619 | 0.495 | 1.08 | 1.06 | 1.1 | 1.07 | 0.917 | 1.02 | 1.04 | 1.03 | 1.03 | 0.949
HCC-827 | 0.991 | 0.853 | 1.02 | 0.267 | 0.519 | 0.255 | 0.217 | 0.211 | – | 0.139 | 1.16 | 1.1 | 1.05 | 0.978 | 1.02 | – | 0.919 | 0.942 | 0.944 | 0.856
NCI-H838 | 0.865 | – | 0.82 | 0.612 | 0.167 | 1.05 | – | 0.904 | 0.647 | 0.617 | 0.714 | 0.696 | 1.02 | 0.892 | 0.489 | 0.774 | 0.808 | 1.07 | 0.815 | 0.292
NCI-H1734 | 0.948 | 0.773 | 0.922 | 0.712 | 0.292 | 0.596 | 0.455 | 0.573 | 0.32 | 0.178 | 0.808 | 0.936 | 0.917 | 1.03 | 0.649 | 0.614 | 0.646 | 0.724 | 0.577 | 0.368
NCI-H441 | 0.634 | 0.517 | 0.659 | 0.492 | 0.441 | 1.38 | 1.13 | 1.28 | 1.08 | 0.772 | 0.509 | 0.442 | 0.392 | 0.581 | 0.367 | 0.592 | 0.648 | 0.89 | 0.931 | 0.485
NCI-H1355 | 1.32 | 1.17 | 1.11 | 1.18 | 0.545 | 0.865 | 0.69 | 0.801 | 0.769 | 0.27 | 1.28 | 1.26 | 1.13 | 1.21 | 1.11 | 1.16 | 1.07 | 1.06 | 0.989 | 0.77
HCC-44 | 0.924 | 0.637 | 0.877 | 0.753 | 0.235 | 1.02 | 0.984 | 0.976 | 0.922 | 0.799 | 0.938 | 0.911 | 0.816 | 0.962 | 0.679 | 0.795 | 0.769 | 0.821 | 0.802 | 0.301
NCI-H2085 | 1.14 | 1.04 | 1.16 | 0.964 | 0.517 | 1.1 | 1.02 | 0.969 | 0.736 | 0.655 | 0.92 | 1.03 | 1.18 | 0.95 | – | 0.76 | 0.738 | 0.795 | 0.859 | 0.559
NCI-H647 | 1.08 | 1.08 | 1.13 | 0.533 | 0.748 | 0.375 | – | 0.643 | 0.192 | 0.101 | 1.15 | 0.778 | 1.13 | 0.924 | 0.515 | 1.12 | 1.1 | 1.05 | 1.14 | 0.213
LU99A | 1.28 | – | 1.06 | 0.873 | 0.191 | 0.546 | 0.235 | 0.323 | 0.237 | 0.141 | 1.11 | 1.21 | 1.18 | 1.23 | 1 | 0.476 | 0.484 | 0.687 | 0.626 | 0.367
ChaGo-K-1 | 0.995 | – | 0.954 | 0.659 | 0.434 | 0.875 | 0.87 | 0.876 | 0.897 | 0.465 | 0.905 | 1.07 | 1.18 | 1.37 | 0.357 | 1.08 | 1.15 | 1.44 | 0.887 | –
